Laboratory results from publication PMC9847078, “On the plasticity of amyloid formation: The impact of destabilizing small to large substitutions on islet amyloid polypeptide amyloid formation” (Protein Science : A Publication of the Protein Society, 2023).

Experiment: Peptide solubility measurement (micro‐BCA after centrifugation)
Assay type: physicochemical
Details: 200 μM peptide in 10 mM PBS (140 mM KCl), centrifuged 18,000 g 30 min, supernatant by micro‐BCA
Protocol: Dry peptides were dissolved in HFIP to prepare the stock solutions. The concentrations of the stock solutions were measured by using freeze dried aliquots of the stock solutions with the micro‐BCA assay. Based on the stock solution concentrations, aliquots were prepared and lyophilized. The dry peptides were reconstructed in 10 mM phosphate buffer saline (140 mM KCl), pH 7.4 at a final peptide concentration of 200 μM. Immediately after reconstitution 10 μl of the sample was removed and the soluble peptide concentration was measured using the micro‐BCA assay. […] After 5 days, a 450 μl portion from each sample were removed and centrifuged at 18,000 g for 30 min (25°C). A 100 μl portion of the centrifuged supernatant was subjected to the micro‐BCA assay to calculate the amount of soluble peptide left after 5 days.

Apparent solubility compared to wild type hIAPP (pH 7.4, 25°C, 5 days, differences not significant (p > 0.05))	Apparent solubility: amount of peptide remaining in the solution (pH 7.4, stood 7 days at room temperature)	SMILES
Slightly higher concentrations	–	CC[C@H](C)[C@H](NC(=O)[C@H](C)NC(=O)[C@H](CC(C)C)NC(=O)[C@H](Cc1ccccc1)NC(=O)[C@H](CC(N)=O)NC(=O)[C@H](CC(N)=O)NC(=O)[C@H](CO)NC(=O)[C@H](CO)NC(=O)[C@H](Cc1c[nH]cn1)NC(=O)[C@@H](NC(=O)[C@H](CC(C)C)NC(=O)[C@H](Cc1ccccc1)NC(=O)[C@H](CC(N)=O)NC(=O)[C@H](C)NC(=O)[C@H](CC(C)C)NC(=O)[C@H](CCCNC(=N)N)NC(=O)[C@H](CCC(N)=O)NC(=O)[C@@H](NC(=O)[C@H](C)NC(=O)[C@@H]1CSSC[C@H](NC(=O)[C@@H](N)CCCCN)C(=O)N[C@@H](CC(N)=O)C(=O)N[C@@H]([C@@H](C)O)C(=O)N[C@@H](C)C(=O)N[C@@H]([C@@H](C)O)C(=O)N1)[C@@H](C)O)C(C)C)C(=O)N[C@@H](CC(C)C)C(=O)N[C@@H](CO)C(=O)N[C@@H](CO)C(=O)N[C@H](C(=O)N[C@@H](CC(N)=O)C(=O)N[C@H](C(=O)NCC(=O)N[C@@H](CO)C(=O)N[C@@H](CC(N)=O)C(=O)N[C@H](C(=O)N[C@@H](Cc1ccc(O)cc1)C(N)=O)[C@@H](C)O)C(C)C)[C@@H](C)O [G24L‐hIAPP]
–	greater than 50 μM	CC[C@H](C)[C@H](NC(=O)[C@H](C)NC(=O)[C@@H]1CCCN1C(=O)[C@H](Cc1ccccc1)NC(=O)[C@H](CC(N)=O)NC(=O)[C@H](CC(N)=O)NC(=O)[C@H](CO)NC(=O)[C@H](CO)NC(=O)[C@H](Cc1c[nH]cn1)NC(=O)[C@@H](NC(=O)[C@H](CC(C)C)NC(=O)[C@H](Cc1ccccc1)NC(=O)[C@H](CC(N)=O)NC(=O)[C@H](C)NC(=O)[C@H](CC(C)C)NC(=O)[C@H](CCCNC(=N)N)NC(=O)[C@H](CCC(N)=O)NC(=O)[C@@H](NC(=O)[C@H](C)NC(=O)[C@@H]1CSSC[C@H](NC(=O)[C@@H](N)CCCCN)C(=O)N[C@@H](CC(N)=O)C(=O)N[C@@H]([C@@H](C)O)C(=O)N[C@@H](C)C(=O)N[C@@H]([C@@H](C)O)C(=O)N1)[C@@H](C)O)C(C)C)C(=O)N[C@@H](CC(C)C)C(=O)N[C@@H](CO)C(=O)N[C@@H](CO)C(=O)N[C@H](C(=O)N[C@@H](CC(N)=O)C(=O)N[C@H](C(=O)NCC(=O)N[C@@H](CO)C(=O)N[C@@H](CC(N)=O)C(=O)N[C@H](C(=O)N[C@@H](Cc1ccc(O)cc1)C(N)=O)[C@@H](C)O)C(C)C)[C@@H](C)O [G24P‐hIAPP]
